Our source for the IC50 values is patent US8431593B2, “Heteroaryl amide derivatives” (H. Lundbeck A/S, priority 2006, dated 2013).

What is called IC50 is the concentration at which inhibition is half-maximal.

Bounds are passed on as bounds.

The target of one assay is T1, P2X7 receptor (Homo sapiens, UniProt Q99572).
T1 construct: host or cells: SH-SY5Y
T1 sequence (Q99572 1-595): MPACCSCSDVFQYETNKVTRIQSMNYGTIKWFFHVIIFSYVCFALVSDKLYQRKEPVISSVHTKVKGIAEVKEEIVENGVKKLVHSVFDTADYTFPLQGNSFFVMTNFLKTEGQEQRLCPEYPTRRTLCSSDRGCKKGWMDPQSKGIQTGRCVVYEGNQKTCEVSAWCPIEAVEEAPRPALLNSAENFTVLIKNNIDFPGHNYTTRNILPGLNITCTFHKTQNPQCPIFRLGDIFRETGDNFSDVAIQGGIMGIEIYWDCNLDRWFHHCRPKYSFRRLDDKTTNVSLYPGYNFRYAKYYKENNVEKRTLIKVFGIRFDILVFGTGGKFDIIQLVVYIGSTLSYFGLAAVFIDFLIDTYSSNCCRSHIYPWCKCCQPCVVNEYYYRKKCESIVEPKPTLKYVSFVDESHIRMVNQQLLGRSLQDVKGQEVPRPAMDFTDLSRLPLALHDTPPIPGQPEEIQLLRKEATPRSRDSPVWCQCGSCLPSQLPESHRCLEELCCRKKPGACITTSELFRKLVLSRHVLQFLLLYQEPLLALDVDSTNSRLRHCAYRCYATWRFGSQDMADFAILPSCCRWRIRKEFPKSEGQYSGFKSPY
In words: P2X7 calcium mobilization assay, high throughput, antagonist activity (Example 4A).
Details: not given
The class given is cell-based. The gist of the method: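 Cells plated 100,000/well the day before; after 1 h dye loading and one rinse, cells were preincubated 1 h at room temperature with test compound. Calcium mobilization then read on FLIPR^TETRA; maximum RFU corrected by subtracting mean no-agonist response and referenced to mean agonist-control maximum.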
(Calcium flux is commonly read through the fluorescence of an indicator in the cells.)
`CC(C)(CO)NC(=O)c1cn2c(C(=O)NC[C@@H]3CC[C@H]4C[C@@H]3C4(C)C)cccc2n1` [Compound 520, 5-N-{[(1S,2R,5S)-6,6-dimethylbicyclo[3.1.1]hept-2-yl]methyl}-2-N-(2-hydroxy-1,1-dimethylethyl)imidazo[1,2-a]pyridine-2,5-dicarboxamide]: the IC50 was under 2000 nM.

The assay is the same for the next values; noted with them: 50% decrease in the fluorescence response of cells exposed to 80 μM 2′(3′)-O-(4-benzoyl-benzoyl)adenosine 5′-triphosphate; Example 4A; read-out: IC50.
Take `O=C(NCC12CC3CC(CC(C3)C1)C2)c1cccc2nc(CC(=O)N3CCSCC3)cn12` [Compound 536, N-(adamantan-1-ylmethyl)-2-(2-oxo-2-thiomorpholin-4-ylethyl)imidazo[1,2-a]pyridine-5-carboxamide]: the IC50 is under 2000 nM.

`CC1(C)[C@@H]2CC[C@@H](CNC(=O)c3cccc4nc(CC(=O)NC5CCNCC5)cn34)[C@H]1C2` [Compound 592, N-{[(1R,2R,5R)-6,6-dimethylbicyclo[3.1.1]hept-2-yl]methyl}-2-[2-oxo-2-(piperidin-4-ylamino)ethyl]imidazo [1,2-a]pyridine-5-carboxamide]: the IC50 is under 2000 nM.

Take `COCCCN(C(=O)Cc1cn2c(C(=O)NC[C@@H]3CC[C@@H]4C[C@H]3C4(C)C)cccc2n1)C1CCNCC1(C)C` (stereo partly drawn) [Compound 572, N-{[(1R,2R,5R)-6,6-dimethylbicyclo[3.1.1]hept-2-yl]methyl}-2-{2-[(3,3-dimethylpiperidin-4-yl)(3-methoxy-propyl)amino]-2-oxoethyl} imidazo[1,2-a] pyridine-5-carboxamide]: the IC50 was under 2000 nM.

Still in this assay, the particulars now being: 50% decrease in the fluorescence response of cells exposed to 80 μM of 2′(3′)-O-(4-benzoyl-benzoyl)adenosine 5′-triphosphate; Example 4A; read-out: IC50.
`O=C(NCC12CC3CC(CC(C3)C1)C2)c1cccc2nc(C(=O)N3CC[C@@H](NCCO)C3)cn12` [Compound 747, N-(adamantan-1-ylmethyl)-2-({3-[(2-hydroxyethyl)amino]pyrrolidin-1-yl}carbonyl)imidazo[1,2-a]pyridine-5-carboxamide]: the IC50 is under 2000 nM.

In the case of `O=C(NCC12CC3CC(CC(C3)C1)C2)c1cccc2nc(C(=O)N3CCN([C@@H]4CCCC[C@H]4O)CC3)cn12` [Compound 701, N-(adamantan-1-ylmethyl)-2-({4-[(1R,2R)-2-hydroxycyclohexyl]piperazin-1-yl}carbonyl)imidazo[1,2-a]pyridine-5-carboxamide], the IC50 was under 2000 nM.

As for `O=C(NCCN1CCCCC1)c1cn2c(C(=O)NCC34CC5CC(CC(C5)C3)C4)cccc2n1` [Compound 650, 5-N-(adamantan-1-ylmethyl)-2-N-(2-piperidin-1-ylethyl)imidazo[1,2-a]pyridine-2,5-dicarboxamide], the IC50 is under 2000 nM.

For the compound `CC1CCCCN1C1CCN(C(=O)c2cn3c(C(=O)NCC45CC6CC(CC(C6)C4)C5)cccc3n2)CC1` (stereo not drawn) [Compound 699, N-(adamantan-1-ylmethyl)-2-[(2-methyl-1,4′-bipiperidin-1′-yl)carbonyl]imidazo[1,2-a]pyridine-5-carboxamide], the IC50 is under 2000 nM.

Regarding `CN(C)C1CCN(C(=O)c2cn3c(C(=O)NCC45CC6CC(CC(C6)C4)C5)cccc3n2)CC1` [Compound 669, N-(adamantan-1-ylmethyl)-2-{[4-(dimethylamino)piperidin-1-yl]carbonyl}imidazo[1,2-a]pyridine-5-carboxamide], the half-maximal inhibitory concentration (IC50) is under 2000 nM.

Consider `COCCN(C(=O)c1cn2c(C(=O)NCC34CC5CC(CC(C5)C3)C4)cccc2n1)C1CCN(C)CC1` [Compound 681, 5-N-(adamantan-1-ylmethyl)-2-N-(2-methoxyethyl)-2-N-(1-methylpiperidin-4-yl)imidazo[1,2-a]pyridine-2,5-dicarboxamide], for which the half-maximal inhibitory concentration (IC50) was under 2000 nM.

The same assay, now with this note: fluorescence response of cells exposed to 80 μM 2′(3′)-O-(4-benzoyl-benzoyl)adenosine 5′-triphosphate; Example 4A; read-out: IC50.
`CC(C)CC(CNC(=O)c1cccc2nc(CC(=O)N3CCCCC3)cn12)c1ccccc1` (stereo not drawn) [Compound 243, N-(4-methyl-2-phenylpentyl)-2-(2-oxo-2-piperidin-1-ylethyl)imidazo[1,2-a]pyridine-5-carboxamide]: the IC50 was under 2000 nM.

Regarding `O=C(NCC12CC3CC(CC(C3)C1)C2)c1cccc2nc(CN3CCC(F)(F)CC3)cn12` [Compound 290, N-(adamantan-1-ylmethyl)-2-[(4,4-difluoropiperidin-1-yl)methyl]imidazo[1,2-a]pyridine-5-carboxamide], the IC50 was under 2000 nM.
